From ChEMBL document CHEMBL1201861, “Genomics of Drug Sensitity in Cancer screening data, Wellcome Trust Sanger Institute”

Tests used:
Ca-Ski = assay: cells; assay type: functional, cell-based, Homo sapiens; details: Homo sapiens, Ca-Ski;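 also: cell viability assay measuring inhibition of Ca-Ski cell growth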
Description: SANGER: Inhibition of human Ca-Ski cell growth in a cell viability assay.

CaR-1 = assay: cells; assay type: functional, cell-based, Homo sapiens; details: Homo sapiens, CaR-1;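 also: growth inhibition of human CaR-1 cancer cells, read out with a cell viability assay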
Description: SANGER: Inhibition of human CaR-1 cell growth in a cell viability assay.

Capan-2 = assay: cells; assay type: functional, cell-based, Homo sapiens; details: Homo sapiens, Capan-2;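 also: Capan-2 cell growth inhibition, read out with a viability assay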
Description: SANGER: Inhibition of human Capan-2 cell growth in a cell viability assay.

DMS-153 = assay: cells; assay type: functional, cell-based, Homo sapiens; details: Homo sapiens, DMS-153
Description: SANGER: Inhibition of human DMS-153 cell growth in a cell viability assay.

DU-145 = assay: cells; assay type: functional, cell-based, Homo sapiens; details: Homo sapiens, DU-145
Description: SANGER: Inhibition of human DU-145 cell growth in a cell viability assay.

DoTc2-4510 = assay: cells; assay type: functional, cell-based, Homo sapiens; details: Homo sapiens, DoTc2-4510
FTC-133 = assay: cells; assay type: functional, cell-based, Homo sapiens; details: Homo sapiens, FTC-133
G-401 = assay: cells; assay type: functional, cell-based, Homo sapiens; details: Homo sapiens, G-401
Description: SANGER: Inhibition of human G-401 cell growth in a cell viability assay.

H4 = assay: cells; assay type: functional, cell-based, Homo sapiens; details: Homo sapiens, H4
Description: SANGER: Inhibition of human H4 cell growth in a cell viability assay.

HO-1-N-1 = assay: cells; assay type: functional, cell-based, Homo sapiens; details: Homo sapiens, HO-1-N-1;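 also: growth inhibition of human HO-1-N-1 cells, read out with a cell viability assay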
Description: SANGER: Inhibition of human HO-1-N-1 cell growth in a cell viability assay.

HT-1080 = assay: cells; assay type: functional, cell-based, Homo sapiens; details: Homo sapiens, HT-1080
Description: SANGER: Inhibition of human HT-1080 cell growth in a cell viability assay.

HT1197 = assay: cells; assay type: functional, cell-based, Homo sapiens, HT-1197; details: Homo sapiens, HT1197
Description: SANGER: Inhibition of human HT-1197 cell growth in a cell viability assay.

HT55 = assay: cells; assay type: functional, cell-based, Homo sapiens; details: Homo sapiens, HT55;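 also: cell viability readout measuring growth inhibition of human HT55 cells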
Description: SANGER: Inhibition of human HT55 cell growth in a cell viability assay.

HTC-C3 = assay: cells; assay type: functional, cell-based, Homo sapiens; details: Homo sapiens, HTC-C3;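 also: inhibition of cell growth, read out with a cell viability assay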
Description: SANGER: Inhibition of human HTC-C3 cell growth in a cell viability assay.

KYSE-180 = assay: cells; assay type: functional, cell-based, Homo sapiens; details: Homo sapiens, KYSE-180;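 also: growth inhibition of KYSE-180 cells, read out with a cell viability assay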
Description: SANGER: Inhibition of human KYSE-180 cell growth in a cell viability assay.

L-540 = assay: cells; assay type: functional, cell-based, Homo sapiens; details: Homo sapiens, L-540;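 also: growth inhibition of the human L-540 cell line, read out with a viability assay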
Description: SANGER: Inhibition of human L-540 cell growth in a cell viability assay.

LC-1F = assay: cells; assay type: functional, cell-based, Homo sapiens; details: Homo sapiens, LC-1F;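 also: growth inhibition of human LC-1F cells, read out with a cell viability assay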
Description: SANGER: Inhibition of human LC-1F cell growth in a cell viability assay.

LP-1 = assay: cells; assay type: functional, cell-based, Homo sapiens; details: Homo sapiens, LP-1;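 also: growth inhibition of human LP-1 cells, with the read-out taken from a cell viability assay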
Description: SANGER: Inhibition of human LP-1 cell growth in a cell viability assay.

LU-165 = assay: cells; assay type: functional, cell-based, Homo sapiens; details: Homo sapiens, LU-165
Description: SANGER: Inhibition of human LU-165 cell growth in a cell viability assay.

LU-99A = assay: cells; assay type: functional, cell-based, Homo sapiens; details: Homo sapiens, LU-99A;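 also: growth inhibition of LU-99A cells, read out with a cell viability assay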
Description: SANGER: Inhibition of human LU-99A cell growth in a cell viability assay.

MC-CAR = assay: cells; assay type: functional, cell-based, Homo sapiens; details: Homo sapiens, MC-CAR;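 also: growth inhibition of the human MC-CAR cell line, read out by a cell viability assay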
Description: SANGER: Inhibition of human MC-CAR cell growth in a cell viability assay.

MDA-MB-175-VII = assay: cells; assay type: functional, cell-based, Homo sapiens; details: Homo sapiens, MDA-MB-175-VII
MDA-MB-453 = assay: cells; assay type: functional, cell-based, Homo sapiens; details: Homo sapiens, MDA-MB-453
Description: SANGER: Inhibition of human MDA-MB-453 cell growth in a cell viability assay.

MRK-nu-1 = assay: cells; assay type: functional, cell-based, Homo sapiens; details: Homo sapiens, MRK-nu-1;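 also: cell viability assay measuring growth suppression of human MRK-nu-1 cells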
Description: SANGER: Inhibition of human MRK-nu-1 cell growth in a cell viability assay.

NCI-H2009 = assay: cells; assay type: functional, cell-based, Homo sapiens; details: Homo sapiens, NCI-H2009;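 also: cell viability assay measuring inhibition of NCI-H2009 cell growth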
Description: SANGER: Inhibition of human NCI-H2009 cell growth in a cell viability assay.

NCI-H524 = assay: cells; assay type: functional, cell-based, Homo sapiens; details: Homo sapiens, NCI-H524;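 also: growth inhibition of human NCI-H524 cells, read out through a cell viability assay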
Description: SANGER: Inhibition of human NCI-H524 cell growth in a cell viability assay.

NCI-H748 = assay: cells; assay type: functional, cell-based, Homo sapiens; details: Homo sapiens, NCI-H748;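 also: growth inhibition of NCI-H748 cells, measured by a cell viability assay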
Description: SANGER: Inhibition of human NCI-H748 cell growth in a cell viability assay.

NCI-H810 = assay: cells; assay type: functional, cell-based, Homo sapiens; details: Homo sapiens, NCI-H810;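 also: IC50 reflects inhibition of cancer cell line growth, read out with a cell viability assay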
Description: SANGER: Inhibition of human NCI-H810 cell growth in a cell viability assay.

SNU-16 = assay: cells; assay type: functional, cell-based, Homo sapiens; details: Homo sapiens, SNU-16;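 also: growth inhibition of human SNU-16 cells, determined with a cell viability readout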
Description: SANGER: Inhibition of human NCI-SNU-16 cell growth in a cell viability assay.

NY = assay: cells; assay type: functional, cell-based, Homo sapiens; details: Homo sapiens, NY
Description: SANGER: Inhibition of human NY cell growth in a cell viability assay.

RCM-1 = assay: cells; assay type: functional, cell-based, Homo sapiens; details: Homo sapiens, RCM-1;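 also: growth inhibition of the RCM-1 line, determined with a cell viability readout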
Description: SANGER: Inhibition of human RCM-1 cell growth in a cell viability assay.

SCLC-21H = assay: cells; assay type: functional, cell-based, Homo sapiens; details: Homo sapiens, SCLC-21H;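 also: growth inhibition of cultured human SCLC-21H cells, read out with a cell viability assay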
Description: SANGER: Inhibition of human SCLC-21H cell growth in a cell viability assay.

SK-MEL-24 = assay: cells; assay type: functional, cell-based, Homo sapiens; details: Homo sapiens, SK-MEL-24;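 also: growth inhibition read out by a cell viability assay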
Description: SANGER: Inhibition of human SK-MEL-24 cell growth in a cell viability assay.

SNU-387 = assay: cells; assay type: functional, cell-based, Homo sapiens; details: Homo sapiens, SNU-387
Description: SANGER: Inhibition of human SNU-387 cell growth in a cell viability assay.

SUP-T1 = assay: cells; assay type: functional, cell-based, Homo sapiens; details: Homo sapiens, SUP-T1;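 also: growth inhibition of human SUP-T1 cells, read out as cell viability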
Description: SANGER: Inhibition of human SUP-T1 cell growth in a cell viability assay.

SW1088 = assay: cells; assay type: functional, cell-based, Homo sapiens; details: Homo sapiens, SW1088;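 also: growth inhibition of human SW1088 cells, read out by a cell viability assay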
Description: SANGER: Inhibition of human SW1088 cell growth in a cell viability assay.

SW1417 = assay: cells; assay type: functional, cell-based, Homo sapiens; details: Homo sapiens, SW1417;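 also: growth inhibition of human SW1417 cells, read out with a cell viability assay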
Description: SANGER: Inhibition of human SW1417 cell growth in a cell viability assay.

SW1710 = assay: cells; assay type: functional, cell-based, Homo sapiens; details: Homo sapiens, SW1710;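 also: growth inhibition of SW1710 cells, determined with a cell viability assay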
Description: SANGER: Inhibition of human SW1710 cell growth in a cell viability assay.

SW48 = assay: cells; assay type: functional, cell-based, Homo sapiens; details: Homo sapiens, SW48;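 also: growth inhibition of SW48 cells, read out with a cell viability assay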
Description: SANGER: Inhibition of human SW48 cell growth in a cell viability assay.

A-375 = assay: cells; assay type: functional, cell-based, Homo sapiens; details: Homo sapiens, A-375;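 also: growth inhibition of A375 cells, read out with a cell viability assay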
Description: SANGER: Inhibition of human A375 cell growth in a cell viability assay.

BHT-101 = assay: cells; assay type: functional, cell-based, Homo sapiens; details: Homo sapiens, BHT-101
Description: SANGER: Inhibition of human BHT-101 cell growth in a cell viability assay.

BL-70 = assay: SANGER: Inhibition of human BL-70 cell growth in a cell viability assay.; assay type: functional, cell-based; details: Homo sapiens, BL-70
C3A = assay: cells; assay type: functional, cell-based, Homo sapiens; details: Homo sapiens, C3A;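 also: growth inhibition of C3A human cells, quantified with a cell viability readout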
Description: SANGER: Inhibition of human C3A cell growth in a cell viability assay.

CAL-62 = assay: cells; assay type: functional, cell-based, Homo sapiens; details: Homo sapiens, CAL-62;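 also: growth inhibition of CAL-62 cells, read out with a cell viability assay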
Description: SANGER: Inhibition of human CAL-62 cell growth in a cell viability assay.

THP-1 = assay: cells; assay type: functional, cell-based, Homo sapiens; details: Homo sapiens, THP-1;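 also: growth inhibition of THP-1 cells, read out via a cell viability assay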
Description: SANGER: Inhibition of human THP-1 cell growth in a cell viability assay.

VMRC-RCZ = assay: cells; assay type: functional, cell-based, Homo sapiens; details: Homo sapiens, VMRC-RCZ
Description: SANGER: Inhibition of human VMRC-RCZ cell growth in a cell viability assay.

WM-115 = assay: cells; assay type: functional, cell-based, Homo sapiens; details: Homo sapiens, WM-115
Description: SANGER: Inhibition of human WM-115 cell growth in a cell viability assay.

CAMA-1 = assay: cells; assay type: functional, cell-based, Homo sapiens; details: Homo sapiens, CAMA-1;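 also: growth inhibition of CAMA-1 cells, read out with a cell viability assay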
Description: SANGER: Inhibition of human CAMA-1 cell growth in a cell viability assay.

CHP-126 = assay: cells; assay type: functional, cell-based, Homo sapiens; details: Homo sapiens, CHP-126
Description: SANGER: Inhibition of human CHP-126 cell growth in a cell viability assay.

`COc1cccc2c1C(=O)c1c(O)c3c(c(O)c1C2=O)C[C@@](O)(C(=O)CO)C[C@@H]3O[C@H]1C[C@H](N)[C@H](O)[C@H](C)O1` [DOXORUBICIN] showed an IC50 (Ca-Ski) of 0.0448 µM, an IC50 (CaR-1) greater than 1.02 µM and an IC50 (Capan-2) of 0.898 µM. The IC50 (DMS-153) was 0.698 µM, the IC50 (DU-145) was 0.0737 µM and the IC50 (DoTc2-4510) was 0.0362 µM. For the same molecule, the IC50 (FTC-133) was 0.229 µM, the IC50 (G-401) was 0.0302 µM and the IC50 (H4) was 0.0716 µM. The IC50 (HO-1-N-1) was 0.223 µM, the IC50 (HT-1080) was 0.0148 µM and the IC50 (HT1197) was 0.213 µM. For the same molecule, the IC50 (HT55) was greater than 1.02 µM, the IC50 (HTC-C3) was 0.704 µM and the IC50 (KYSE-180) was 0.0598 µM. For the same molecule, the IC50 (L-540) was 0.213 µM, the IC50 (LC-1F) was greater than 1.02 µM and the IC50 (LP-1) was greater than 1.02 µM. For the same molecule, the IC50 (LU-165) was 0.639 µM, the IC50 (LU-99A) was 0.147 µM and the IC50 (MC-CAR) was 0.0487 µM. For the same molecule, the IC50 (MDA-MB-175-VII) was 0.972 µM, the IC50 (MDA-MB-453) was greater than 1.02 µM and the IC50 (MRK-nu-1) was 0.0437 µM. For the same molecule, the IC50 (NCI-H2009) was 0.0518 µM, the IC50 (NCI-H524) was greater than 1.02 µM and the IC50 (NCI-H748) was 0.147 µM. For the same molecule, the IC50 (NCI-H810) was 0.0188 µM, the IC50 (SNU-16) was greater than 1.02 µM and the IC50 (NY) was 0.228 µM. The IC50 (RCM-1) was greater than 1.02 µM, the IC50 (SCLC-21H) was greater than 1.02 µM and the IC50 (SK-MEL-24) was 0.914 µM. The IC50 (SNU-387) was 0.236 µM, the IC50 (SUP-T1) was 0.0797 µM and the IC50 (SW1088) was greater than 1.02 µM. It also gave an IC50 (SW1417) of 0.363 µM, an IC50 (SW1710) of 0.0174 µM and an IC50 (SW48) of 0.0497 µM. For the same molecule, the IC50 (A-375) was 0.00917 µM, the IC50 (BHT-101) was 0.396 µM and the IC50 (BL-70) was 0.342 µM. For the same molecule, the IC50 (C3A) was 0.416 µM, the IC50 (CAL-62) was 0.0328 µM and the IC50 (THP-1) was 0.989 µM. It also gave an IC50 (VMRC-RCZ) of 0.0933 µM, an IC50 (WM-115) greater than 1.02 µM and an IC50 (CAMA-1) of 0.159 µM. The IC50 (CHP-126) was 0.0592 µM.
`Nc1ccn([C@@H]2O[C@H](CO)[C@@H](O)C2(F)F)c(=O)n1` [GEMCITABINE] gave an IC50 (Ca-Ski) of 0.00709 µM, an IC50 (CaR-1) of 0.551 µM and an IC50 (Capan-2) greater than 1.02 µM. The IC50 (DMS-153) was greater than 1.02 µM, the IC50 (DU-145) was 0.00929 µM and the IC50 (DoTc2-4510) was less than 0.004 µM. The IC50 (FTC-133) was 0.0875 µM, the IC50 (G-401) was 0.0552 µM and the IC50 (H4) was 0.00218 µM. The IC50 (HO-1-N-1) was 0.0238 µM, the IC50 (HT-1080) was 0.00583 µM and the IC50 (HT1197) was greater than 1.02 µM. The IC50 (HT55) was greater than 1.02 µM, the IC50 (HTC-C3) was 0.996 µM and the IC50 (KYSE-180) was 0.0128 µM. For the same molecule, the IC50 (L-540) was 0.0016 µM, the IC50 (LC-1F) was greater than 1.02 µM and the IC50 (LP-1) was greater than 1.02 µM. It also gave an IC50 (LU-165) greater than 1.02 µM, an IC50 (LU-99A) greater than 1.02 µM and an IC50 (MC-CAR) of 0.0116 µM. It also gave an IC50 (MDA-MB-175-VII) greater than 1.02 µM, an IC50 (MDA-MB-453) greater than 1.02 µM and an IC50 (MRK-nu-1) of 0.00257 µM. It also gave an IC50 (NCI-H2009) of less than 0.004 µM, an IC50 (NCI-H524) greater than 1.02 µM and an IC50 (NCI-H748) of 0.355 µM. For the same molecule, the IC50 (NCI-H810) was 0.00856 µM, the IC50 (SNU-16) was greater than 1.02 µM and the IC50 (NY) was 0.0302 µM. For the same molecule, the IC50 (RCM-1) was 0.665 µM, the IC50 (SCLC-21H) was greater than 1.02 µM and the IC50 (SK-MEL-24) was greater than 1.02 µM. For the same molecule, the IC50 (SNU-387) was 0.827 µM, the IC50 (SUP-T1) was 0.0235 µM and the IC50 (SW1088) was greater than 1.02 µM. The IC50 (SW1417) was greater than 1.02 µM, the IC50 (SW1710) was less than 0.004 µM and the IC50 (SW48) was 0.463 µM. For the same molecule, the IC50 (A-375) was less than 0.004 µM, the IC50 (BHT-101) was 0.21 µM and the IC50 (BL-70) was 0.111 µM. For the same molecule, the IC50 (C3A) was 0.00884 µM, the IC50 (CAL-62) was 0.00122 µM and the IC50 (THP-1) was 0.664 µM. For the same molecule, the IC50 (VMRC-RCZ) was 0.00154 µM, the IC50 (WM-115) was greater than 1.02 µM and the IC50 (CAMA-1) was 0.396 µM. For the same molecule, the IC50 (CHP-126) was 0.0241 µM.
